Data reported in publication PMC3951181, “Rosamines Targeting the Cancer Oxidative Phosphorylation Pathway” (PLoS ONE, 2014).

Assays:
HCT-116 colon carcinoma = assay: MTT cell viability assay, 48 h; assay type: cell-based; conditions: Homo sapiens, 48 h post-treatment, mean ± SD
Experimental: (§1) MCF-7 breast carcinoma and HCT-116 colon carcinoma cell lines were obtained from American Tissue Culture Collection (Virginia, USA) and maintained in RPMI 1640 medium supplemented with 10% FBS. HSC-2 oral cavity human squamous carcinoma cells were obtained from Health Science Research Resources Bank (Japan). HK-1, a previously characterized nasopharyngeal squamous carcinoma cells is a gift by Prof. Wong Y.C. from the University of Hong Kong. Both cell lines were grown in MEM medium supplemented with 10% FBS. For cell viability assay, cells at 4000 cells/well in 80 µl of medium were inoculated in 96-well plates and were allowed to adhere overnight. Cells were then treated with each compound at concentrations ranging from 0.001–10 µM giving the final volume of 100 µl in each well. At the end of incubation period, 15 µl of 5.0 mg/ml MTT in phosphate buffered saline (PBS) was added and incubated for 4 h. Medium and excessive MTT were aspirated and the resulting formazan was solubilized with 100 µl of dimethyl sulfoxide. Absorbance was read at 570 nm with SpectraMax M4 microplate spectrophotometer (Molecular Devices, CA).
(§2) The in vitro antitumor activity of rosamines was assessed using a 48 h endpoint cell viability methylthiazolyldiphenyl-tetrazolium bromide (MTT) assay against a panel of solid human tumor cell lines including breast carcinoma (MCF-7), colon carcinoma (HCT-116), oral squamous cell carcinoma (HSC-2) and nasopharyngeal carcinoma (HK-1). […] Within the halide series, cytotoxicities increase in the following order 4>3>[…] (Cl>Br>I), although not statistically significant (P>0.05).

[1] = test system: HK-1 nasopharyngeal squamous carcinoma cells; assay: MTT cell viability assay, 48 h; assay type: cell-based; conditions: Homo sapiens, 48 h post-treatment, mean ± SD
Experimental: as §1, §2

[2] = test system: HSC-2 oral cavity human squamous carcinoma cells; assay: MTT cell viability assay, 48 h; assay type: cell-based; conditions: 48 h post-treatment, mean ± SD
Experimental: as §1, §2

MCF-7 breast carcinoma = assay: MTT cell viability assay, 48 h; assay type: cell-based; conditions: Homo sapiens, MCF7, 48 h post-treatment, mean ± SD
Experimental: as §1, §2

HSC-2 cells = assay: JC-1 analysis of mitochondrial membrane potential; assay type: cell-based, human; conditions: 0.1 µM, untreated control about 8% at 8 h
Experimental: The mitochondrial membrane potential was measured based on the potential–dependent accumulation of the cationic JC-1 dye which results in a shift of fluorescence emission from green (∼525 nm) to red (∼590 nm) due to the formation of J-aggregates. Therefore, mitochondrial depolarization is indicated by a decrease in the red/green fluorescence intensity ratio. Briefly, cells were collected and suspended in 1 ml warm media at approximately 1×10^6 cell/ml. In a control tube, 1 µl of 50 mM CCCP was added and incubated at 37°C for 5 min. Then, 10 µl of 200 µM JC-1 was added into the cells and incubated at 37°C for 30 min. Cells were washed twice with warm PBS, resuspended in 500 µl of PBS and analyzed on a FACSCalibur flow cytometer using 488 nm excitation with 530/30 nm and 585/42 nm bandpass emission filters.
Meanwhile, the mitochondrial transmembrane potential loss was more prominent in HSC-2 cells treated with 5 at 0.1 µM. Approximately 21% (P<0.05) of the cell population was affected in the first hour and the percentage increased drastically to 34% in 8 h. For the untreated control cells, the population of depolarized cells at 8 h remained at approximately 8%. […] CCCP is an oxidative phosphorylation decoupling agent which acts as a positive control for the experiment.

[3] = test system: 4T1 mouse mammary carcinoma; assay: In vivo antitumor efficacy, tumor allograft; parameters: species or system female BALB/c mice; conditions: for median day for 4T1 tumor in attaining two-doubling growth (RTV = 4): control approximately 9 days; for terminal percent test/control (% T/C): end of experiment (day 14)
Experimental: All animal experiments were conducted in accordance with protocols reviewed and approved by Dr. Haji Azizuddin Bin Haji Kamaruddin, Laboratory Animal Centre (LAC) Animal Care and Use Committee of Faculty of Medicine, University of Malaya (reference number FAR/14/07/2010/LSH). Female BALB/c mice aged between 6–8 weeks with a minimum weight of 17 g were maintained in a controlled environment of 12 h light-dark cycles with free access to food (standard pellet diet purchased from Altromin International, Lage, Germany) and purified water. Female mice were used because the hormonal environment essential for development of implanted 4TI mouse mammary carcinoma would be present.
Tumor allografts were initiated by subcutaneous injection of 5×10^5 4T1 mouse mammary carcinoma in 0.1 ml RPMI 1640 media into the inguinal mammary fat-pads of mice. Tumor growth was monitored and treatments were initiated when tumors reached volume of approximately 200 mm^3. To assess the tumor growth inhibition, 4T1 tumor bearing mice were randomized into groups with at least eight animals per group. Compound 5 was prepared at 0.3 mg/ml in normal saline and treatment was administered intravenously at 5 mg/kg on staging day or 3 mg/kg every other day for six treatments (q2dx6). For control group, normal saline was given. The animal weights and tumor volume were measured three times weekly for 14 d. The tumor volume was calculated using the equation: (length×width^2)/2 and relative tumor volume (RTV) was calculated for every tumor volume at any given time (VT) against the tumor volume at staging day (V0) using the equation: VT/V0. The RTV – time profile for each group was plotted and tumor growth delay in attaining a specified number of doublings compared to control was determined, [19]. Results were expressed as median ±95% confidence interval (n = 8).

[4] = test system: panel of solid human tumor cell lines (MCF-7, HCT-116, HSC-2, HK-1); parameters: method as in PMID 19387338; conditions: anticancer activity in cellular assays; previous study; cited from earlier work
Complex IV = Complex IV (Mus musculus, UniProt P00397+P00405+P00416); assay: Immunocapture ELISA microplate enzyme activity assay; conditions: read-out: IC50 Complex IV activity; mouse liver mitochondria extract; 0.01–10 µM
Experimental: (§3) Functional mitochondria were isolated from mouse liver by differential centrifugation method [14]. Briefly, a mouse (∼30 g) was starved overnight before sacrificed by cervical dislocation. The liver was harvested promptly and rinsed with ice-cold mitochondria isolation buffer (10 mM Tris-MOPS, 1 mM EGTA/Tris, 0.2 M sucrose, pH 7.4) until blood-free. The liver was then cut into small pieces in a beaker using scissors while keeping in an ice-bath. The buffer was replaced with 5 ml of fresh isolation buffer and the liver was homogenized with a Polytron probe (Ultra-Turrax T8, Ika-Werke, Germany) until smooth. The homogenate was centrifuged at 1000 g for 15 min at 4°C. The pellet was discarded and the supernatant was centrifuged at 12000 g for 15 min at 4°C to pellet the mitochondria. The mitochondria were washed twice by resuspending in 4 volumes of isolation buffer containing 1× protease cocktail inhibitor. The concentration of the mitochondrial protein was determined using the Bradford (Biorad protein assay) method. […]
(§4) In general, plate pre-coated with appropriate immunocapture antibody was incubated with mitochondria extract at recommended concentration to allow immobilization of their respective complexes. Complexes activity was measured by addition of substrates solution mix provided by the kit and compound was added at concentration ranging from 0.01–10 µM in triplicate. […]

ATP synthase = ATP synthase (Mus musculus, UniProt P56480+Q03265); assay: as above; conditions: read-out: IC50 ATP synthase activity; mouse liver mitochondria extract; 0.01–10 µM
Experimental: as §3, §4

SMILES: c1csc(-c2c3ccc(=[N+]4CCCCC4)cc-3oc3cc(N4CCCCC4)ccc23)c1 [Rosamine 5]
- IC50 (HCT-116 colon carcinoma): 70 ± 20 nM
- IC50 [1]: 100 nM
- IC50 [2]: 90 ± 10 nM
- IC50 (MCF-7 breast carcinoma): 180 ± 20 nM
- cell population with mitochondrial transmembrane potential loss (HSC-2 cells; 8 h): 34%
- cell population with mitochondrial transmembrane potential loss (HSC-2 cells; within 1 h after treatment): Approximately 21%
- median day for 4T1 tumor in attaining two-doubling growth (RTV = 4) ([3]; 3 mg/kg i.v. q2d×6): ~13 days
- terminal percent test/control (% T/C) ([3]; 3 mg/kg i.v. q2d×6): 66%
- two-doubling tumor growth delay (T-C)/C ([3]; 5 mg/kg single bolus i.v.): 22%
- median day for 4T1 tumor in attaining two-doubling growth (RTV = 4) ([3]; 5 mg/kg single bolus i.v.): ~11 days
- terminal percent test/control (% T/C) ([3]; 5 mg/kg single bolus i.v.): 72%
- fold more active than phenyl substituted compound 1 [4]: 5 fold
- IC50 (Complex IV): > 10000 nM
- IC50 (ATP synthase): 3000 ± 800 nM
